Experimental data taken from patent US20090238799A1, “Conditionally-Immortalised Pancreatic Cells” (priority 2005, published 2009).

Key:
[1] = tested on: Telomerase Reverse Transcriptase; assay: Quantitative PCR of c-myc gene target induction in c-mycERTAM pancreatic cells; type: cell-based, human; details: pancreatic cells with c-mycERTAM, FIG. 4
Description: For the PCR of the c-myc-ER and insulin, the titanium taq PCR kit (Clontech laboratories) was used, see Table 2 for the primers used. The PCR reaction conditions were standard. The PCR machine used was GeneAmp PCR system 2700. For analysis, 15 μl of the PCR product was mixed with 5 μl 6× loading dye solution (MBI R0611) and loaded to a gel. A 100 bp DNA ladder (MBI SM0241), 6 μl, containing 3 μg DNA was also loaded. The gel was a 2% agarose gel consisting of: TAE buffer (Invitrogen 15558-034), agarose 2%, ethidium bromide, 267 μg/ml. The gel was run with an electrophoresis power supply E835 (Consort) in a tray HU13 (Jencons) and finally scanned with Fluor-S multimager (Biorad) and analysed with the software Quantity One (Biorad). For quantitative PCR, total RNA is extracted from cell pellets using Trizol (Invitrogen) and RNeasy (Qiagen) spin-columns, prior to reverse-transcription with Superscript II (Invitrogen) to synthesize the first strand of cDNA, which can be used as a template in quantitative PCR. Each gene transcript is detected with a sequence-specific primer-probe combination which accumulates a fluorescent signal during each PCR cycle, detected using a Lightcycler 480 instrument (Roche); the transcription of each gene is normalized against loading-level by assessing a number of house-keeping genes, and expressed as a proportion of a calibrator sample.

[2] = tested on: cells containing the cmyERTam construct; assay: Proliferation of cells containing the cmyERTam construct; type: cell-based, human; details: removal promotes differentiation
Description: Before use, the following growth factors (GF) were added to HPM: 20 ng/ml epidermal growth factor (EGF) and 50 nM Gastrin I. After infection the pancreas cells were cultured in the presence of a supplement: 100 nM 4-Hydroxytamoxifen (4OHT).
Pancreas cells or preselected pancreas cell aggregates were transferred on fibronectin coated or uncoated vessels. Pancreatic cells were infected with virus supernatant and 4-8 μg/ml hexadimethrine bromide. After 8-16 hours of infection, fresh HPM was added and the infection cycle was repeated the next day. The infection was done in 10 cm Petri dishes with cell confluency ranging from 40% to 70%. After infection 4OHT was added to the medium. After 2 days from completed infection the cells were passaged for expansion and/or selection.

In the case of 4-hydroxytamoxifen [4-OHT], the “Telomerase Reverse Transcriptase (hTERT) induction” value [1] is reported as “induction” and the “effect of addition on proliferation” value [2] is reported as “promotes proliferation”.
